By AC50 is commonly meant the concentration giving half of the maximal activity seen.

This passage reports activity change, negative = inhibition and AC50 results from PubChem BioAssay AID977623 (Broad Institute, 2014).

Inconclusive results are not listed. Activity calls are given as the source filed them.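 Rule for the calls: active = red signal of normal-ribosome cells cut twice as much as green signal of humanized-ribosome cells, growth loss under 30%; inactive = the rest, inconclusive results apart.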

The nature of assay [1]: wild-type E. coli growth inhibition versus H69 humanized strain – H69 mutant GFP, wild-type RFP, cherry-pick, dose response (AID 977623). The settings on record: E. coli WT-RFP/H69-GFP mixed culture, fluorescence, 24 h.
Assay [2] concerns E. coli WT-RFP/H69-GFP mixed culture, fluorescence, 24 h. The assay is described as above.
Where [3] appears, read: measured here: H69 humanized strain GFP growth.
Where [4] appears, read: E. coli WT-RFP/H69-GFP mixed culture, 24 h, measured here: total growth OD600.

Turning to `C[C@@H]1CCCCO[C@H](CN(C)C(=O)CCCN(C)C)[C@H](C)CN([C@@H](C)CO)C(=O)c2cc(NC(=O)Nc3cccc4ccccc34)ccc2O1`, in assay [1] (at 50 µM (top of the series)), the activity change, negative = inhibition was 102 (inactive). Moreover, the AC50 in assay [2] (setting [3]) is > 100 µM.
On to `Cc1noc(C)c1NC(=O)Nc1ccc2c(c1)C(=O)N([C@H](C)CO)C[C@@H](C)[C@@H](CN(C)C(=O)Nc1ccc3c(c1)OCO3)OCCCC[C@@H](C)O2`, for which the activity change, negative = inhibition in assay [1] (at 50 µM (top of the series)) was 153 (inactive). Further, the concentration at half-maximal activity (AC50) in assay [2] (setting [4]) was > 100 µM.
On to `CCOC(=O)c1c(NC(=O)Cc2cccs2)sc(C)c1C`, for which the activity change, negative = inhibition in assay [1] (at 50 µM (top of the series)) was 24.9 (inactive). Moreover, the concentration at half-maximal activity (AC50) in assay [2] (setting [4]) is 9.61 µM; in assay [2] (setting [3]) it was 47.4 µM.
For `O=C(O)c1cc([N+](=O)[O-])ccc1NCc1ccccc1`, the activity change, negative = inhibition in assay [1] (at 50 µM (top of the series)) was 3.75 (inactive). In assay [2] (setting [4]), this compound showed an AC50 of 15.2 µM.
With `COc1ccc(Cn2c(-c3ccc(Cl)cc3)c[n+]3ccccc23)cc1`, the activity change, negative = inhibition in assay [1] (at 50 µM (top of the series)) is 26.5 (inactive). The same compound returned an AC50 in assay [2] (setting [4]) of 47.2 µM.
Regarding `COc1cc2c(cc1[N+](=O)[O-])-c1ccc([N+](=O)[O-])cc1C2`, in assay [1] (at 26 µM (top of the series)), the activity change, negative = inhibition is 77.3 (inactive). Also, the AC50 in assay [2] (setting [4]) is 2.76 µM; in assay [2] (setting [3]), > 100 µM.
Regarding `COc1ccc2[nH]c3c(=O)n(CCCCC(=O)NCCC(C)C)c(=S)[nH]c3c2c1`, the activity change, negative = inhibition in assay [1] (at 50 µM (top of the series)) was 100 (inactive).
For `Cc1ccc(C)c(NC(=O)CSc2nc3nc(-c4cccs4)cc(C(F)(F)F)c3c(=O)[nH]2)c1`, in assay [1] (at 50 µM (top of the series)), the activity change, negative = inhibition is 16.1 (inactive). Besides, the AC50 in assay [2] (setting [4]) amounted to 10.3 µM; in assay [2] (setting [3]) it was 12.8 µM.
In the case of `COc1ccc(NC(=O)c2ccc(-c3ccc([N+](=O)[O-])cc3)o2)cc1`, the AC50 is > 100 µM (inactive) in assay [2], 5.6 µM in assay [2] (setting [4]) and > 100 µM in assay [2] (setting [3]).
